SMILES strings stand for the structures. Where two headings read alike, the source gives them in different places.

A short description of data set [1]: in vitro. The settings on record: human.
A further data set relates to SMN2 exon 7 splicing. Nature of the data set: Cell-based SMN2 splicing assay in 293T cells (minigene). Set-up: species or system human. The settings on record: for EC50: Homo sapiens, HEK-293T; for splicing modulation in cells: cellular SMN2 splicing assays.
In data set [2] the target is DNA Seq6 (UGAAGGAAGGU as deoxyribonucleotides). Nature of the data set: FP binding assay, DNA Seq6. The settings on record: footnote c: FP assay for DNA Seq6; range = 95% CI; read-out: Kd. Here is the method:
All synthetic DNA and RNA oligomers were purchased from Integrated DNA Technologies and reconstituted in nuclease-free water (Invitrogen #AM9932) at 1 mM. The concentration of the oligonucleotides at ˜0.1 mM was calibrated with the A260 value measured by a NanoDrop ND-1000 (Thermo, Waltham, MA, USA) and the predicted extinction coefficient (http://www.oligoevaluator.com) using Lamber-Beer's Law. The risdiplam analogues (1 mM in DMSO) were diluted in 2× assay buffer (40 mM HEPES, 200 mM NaCl for RNA; 40 mM HEPES, 200 mM NaCl, 1 mM MgCl2 for DNA) to make a 1 μM 2× working solution.
A 1:2 dilution series (8 points) of each oligonucleotide was prepared in 20-30 μL water to desired concentrations (i.e., 1-128 μM). 20-30 μL 2× working solution containing the 2× assay buffer and the small-molecule ligand was added to each oligonucleotide sample in 1:1 (v/v) and mixed by pipetting for 4 times. For fluorescence polarization measurement, 20 μL of the above 1× working solution was transferred into a 384-well, black, F-bottom microplates (Greiner Bio-One) in duplicates or triplicates. The plate was equilibrated at room temperature for 5 min before being read using a microplate reader (SYNERGY H1, BioTek; Excitation/Emission=360/460 nm) at 25° C. For compound SMN-C5, a competitive binding assay was employed to measure an apparent Kd. SMN-C5 was 1:2 serial diluted for 10 concentration points starting at 750 μM in DMSO. A mixture of SMN-C2 (0.5 μM) and DNA Seq6 (25 μM) in 1× assay buffer was prepared and incubated at room temperature for 10 minutes. 3 μL of SMN-C5 solution at each concentration was added to a 42 μL SMN-C2/DNA Seq6 mixture and incubated at room temperature for 10 minutes. The mixture was then transferred into a microplate (20 μL each well) in duplicates for fluorescence polarization readout. The experimental data were analyzed using Prism 8 software (Graphpad Software, San Diego, CA, USA).

The nature of data set [3]: in vitro. The settings on record: human. The source holds these as a separate data set.
The nature of data set [4]: in vitro. The settings on record: human. This is another data set of the same source.
Data set [5] has as its target COVID RNA (SARS-CoV-2 RNA SL5 per FIG. 8). The data set can be described thus: FP binding, Kd for COVID RNA.
Setting [6] is: Table 3, read-out: SMN2 Splicing EC50.
Setting [7] is: cell-based SMN2 splicing assay in 293T cells, read-out: SMN2 EC50.

In the data set “in vitro [1]”, `O=c1oc2cc(N3CCNCC3)ccc2cc1-c1cn2cc(C(F)(F)F)ccc2n1` [Compound C37, 7-(piperazin-1-yl)-3-(6-(trifluoromethyl)imidazo[1,2-a]pyridin-2-yl)-2H-chromen-2-one] showed a CC50 of 14.1 µM.

For the compound `CC(=O)N1CCN(c2ccc3cc(-c4cn5cc(C)nc(C)c5n4)c(=O)oc3c2)C[C@@H]1C` [Compound C8, (S)-7-(4-acetyl-3-methylpiperazin-1-yl)-3-(6,8-dimethylimidazo[1,2-a]pyrazin-2-yl)-2H-chromen-2-one], the EC50 in the data set with SMN2 exon 7 splicing (setting [6]) is > 8 µM.

For `COc1ccn2cc(-c3cc4ccc(N5CCNCC5)cc4oc3=O)nc2c1` [Compound C34, 3-(7-methoxyimidazo[1,2-a]pyridin-2-yl)-7-(piperazin-1-yl)-2H-chromen-2-one], in the data set “in vitro [1]”, the CC50 worked out at 3.6 µM.

As to `Cc1cn2cc(-c3c(OCCNC(=O)OC(C)(C)C)c4ccc(N5CCN[C@@H](C)C5)cc4oc3=O)nc2c(C)n1` [Compound C7], the EC50 in the data set with SMN2 exon 7 splicing (setting [6]) was > 8 µM.

On to `Cc1cn2cc(-c3c(Br)c4ccc(N5CCN[C@@H](C)C5)cc4oc3=O)nc2c(C)n1` [Compound C13, (S)-4-bromo-3-(6,8-dimethylimidazo[1,2-a]pyrazin-2-yl)-7-(3-methylpiperazin-1-yl)-2H-chromen-2-one], for which the EC50 in the data set on SMN2 exon 7 splicing (setting [6]) was 0.45 ± 0.18 µM.

For `O=c1oc2cc(N3CCNCC3)ccc2cc1-c1cn2cc(Cl)ccc2n1` [Compound C33, 3-(6-chloroimidazo[1,2-a]pyridin-2-yl)-7-(piperazin-1-yl)-2H-chromen-2-one], in “in vitro [1]”, the CC50 stood at 11.6 µM.

With `O=c1oc2cc(N3CCNCC3)ccc2cc1-c1ccc2ccccc2c1` [Compound C39], the EC50 in the data set with SMN2 exon 7 splicing (setting [6]) was > 8 µM. The CC50 in the data set “in vitro [1]” stood at 7.9 µM.

On to `Cc1c(-c2ccc(Cl)cc2)c(=O)oc2cc(N3CCN(C)CC3)ccc12` [Compound C23, 3-(4-chlorophenyl)-4-methyl-7-(4-methylpiperazin-1-yl)-2H-chromen-2-one], for which the Kd in data set [2] is > 100 µM. In addition, the EC50 in the data set with SMN2 exon 7 splicing (setting [6]) and in the data set on SMN2 exon 7 splicing (setting [7]) was > 8 µM throughout.

`CN1CCN(c2ccc3cc(-c4ccc(Cl)cc4)c(=O)oc3c2)CC1` [Compound C20, 3-(4-chlorophenyl)-7-(4-methylpiperazin-1-yl)-2H-chromen-2-one]: the dissociation constant (Kd) in data set [2] was found to be 8.2 ± 0.7 µM. Moreover, the concentration for a half-maximal effect (EC50) in the data set with SMN2 exon 7 splicing (setting [6]) and in the data set with SMN2 exon 7 splicing (setting [7]) was > 8 µM each time. In addition, the “splicing modulation in cells” value in the data set on SMN2 exon 7 splicing is recorded as “without showing any observable splicing modulation”.

In the case of `CN1CCN(c2cc(F)c3cc(-c4ccc(Cl)cc4)c(=O)oc3c2)CC1` [Compound C26, 3-(4-chlorophenyl)-5-fluoro-7-(4-methylpiperazin-1-yl)-2H-chromen-2-one], the Kd in data set [2] turned out to be 9.9 ± 0.9 µM. Moreover, the EC50 in the data set on SMN2 exon 7 splicing (setting [6]) and with SMN2 exon 7 splicing (setting [7]) was > 8 µM in each case. The CC50 in “in vitro [3]”, in the data set “in vitro [4]” and in the data set “in vitro [1]” was > 30 µM in each case.

On to `CN1CCN(c2cc(F)c3cc(-c4ccccc4Cl)c(=O)oc3c2)CC1` [Compound C24, 3-(2-chlorophenyl)-5-fluoro-7-(4-methylpiperazin-1-yl)-2H-chromen-2-one], for which the half-maximal effective concentration (EC50) in the data set on SMN2 exon 7 splicing (setting [6]) is > 8 µM.

Regarding `Cc1cn2cc(-c3cc4ccc(N5CCN(CCOCCN=[N+]=[N-])[C@@H](C)C5)cc4oc3=O)nc2c(C)n1` [Compound C12, (S)-7-(4-(2-(2-azidoethoxy)ethyl)-3-methylpiperazin-1-yl)-3-(6,8-dimethylimidazo[1,2-a]pyrazin-2-yl)-2H-chromen-2-one], the EC50 with SMN2 exon 7 splicing (setting [6]) came out at 0.18 ± 0.04 µM. For the same compound, the Kd in data set [5] (Table 3) and in data set [5] (Table 4) was 2.6 ± 0.8 µM throughout.

Turning to `CN1CCN(c2cc(F)c3cc(-c4cccc(Cl)c4)c(=O)oc3c2)CC1` [Compound C25, 3-(3-chlorophenyl)-5-fluoro-7-(4-methylpiperazin-1-yl)-2H-chromen-2-one], the Kd in data set [2] is 18.7 ± 4 µM. The EC50 with SMN2 exon 7 splicing (setting [6]) and in the data set with SMN2 exon 7 splicing (setting [7]) was > 8 µM throughout.

`CN1CCN(c2ccc3cc(-c4ccccc4Cl)c(=O)oc3c2)CC1` [Compound C18, 3-(2-chlorophenyl)-7-(4-methylpiperazin-1-yl)-2H-chromen-2-one]: in data set [2], the Kd is > 100 µM. In addition, the EC50 in the data set on SMN2 exon 7 splicing (setting [6]) and in the data set on SMN2 exon 7 splicing (setting [7]) was > 8 µM in each case.

Consider `O=c1oc2cc(N3CCNCC3)ccc2cc1-c1cn2ccccc2n1` [Compound C29, 3-(imidazo[1,2-a]pyridin-2-yl)-7-(piperazin-1-yl)-2H-chromen-2-one], for which the figures for the Kd in data set [2], in data set [5] (Table 3) and in data set [5] (Table 4) were 2.8 ± 0.5 µM, 0.46 ± 0.08 µM and 0.46 ± 0.8 µM, respectively. Besides, the EC50 in the data set with SMN2 exon 7 splicing (setting [6]) and with SMN2 exon 7 splicing (setting [7]) was > 8 µM throughout. Besides, the “splicing modulation in cells” value in the data set on SMN2 exon 7 splicing is given as “without showing any observable splicing modulation”. Further, the CC50 in the data set “in vitro [1]” is 5.4 µM.

On to `O=c1oc2cc(N3CCNCC3)ccc2cc1-c1cn2ccc(Cl)cc2n1` [Compound C32, 3-(7-chloroimidazo[1,2-a]pyridin-2-yl)-7-(piperazin-1-yl)-2H-chromen-2-one], for which the EC50 in the data set on SMN2 exon 7 splicing (setting [6]) is > 8 µM. Moreover, the results for the Kd in data set [5] (Table 3) and in data set [5] (Table 4) were 0.4 ± 0.04 µM and 0.4 ± 0.4 µM, respectively.

Turning to `O=c1oc2cc(N3CCNCC3)ccc2cc1-c1cn2cc(F)ccc2n1` [Compound C31, 3-(6-fluoroimidazo[1,2-a]pyridin-2-yl)-7-(piperazin-1-yl)-2H-chromen-2-one], the equilibrium dissociation constant (Kd) in data set [5] (Table 3) and in data set [5] (Table 4) was 0.68 ± 0.1 µM throughout. For the same compound, in “in vitro [1]”, the CC50 is 4.7 µM.

For the compound `CN1CCN(c2ccc3cc(-c4cccc(Cl)c4)c(=O)oc3c2)CC1` [Compound C19, 3-(3-chlorophenyl)-7-(4-methylpiperazin-1-yl)-2H-chromen-2-one], the Kd in data set [2] came to 13.9 ± 1.1 µM. In addition, the EC50 in the data set on SMN2 exon 7 splicing (setting [6]) and in the data set on SMN2 exon 7 splicing (setting [7]) was > 8 µM in each case. In addition, the CC50 in the data set “in vitro [3]”, in “in vitro [4]” and in “in vitro [1]” was > 30 µM in each case.

`O=c1oc2cc(N3CCNCC3)ccc2cc1-c1cn2ccc(C(F)(F)F)cc2n1` [Compound C36, 7-(piperazin-1-yl)-3-(7-(trifluoromethyl)imidazo[1,2-a]pyridin-2-yl)-2H-chromen-2-one]: the Kd was 1.4 ± 0.4 µM in data set [5] (Table 3) and 1.39 ± 0.4 µM in data set [5] (Table 4).

In the case of `Cc1c(-c2cccc(Cl)c2)c(=O)oc2cc(N3CCN(C)CC3)ccc12` [Compound C22, 3-(3-chlorophenyl)-4-methyl-7-(4-methylpiperazin-1-yl)-2H-chromen-2-one], the Kd in data set [2] is > 100 µM. In addition, the 50% effective concentration (EC50) in the data set on SMN2 exon 7 splicing (setting [6]) and in the data set with SMN2 exon 7 splicing (setting [7]) was > 8 µM throughout. In addition, the CC50 in the data set “in vitro [3]”, in “in vitro [4]” and in the data set “in vitro [1]” was > 30 µM throughout.

As for `O=c1oc2cc(N3CCNCC3)ccc2cc1-c1ccc2ncccc2c1` [Compound C38], the concentration for a half-maximal effect (EC50) with SMN2 exon 7 splicing (setting [6]) is > 8 µM. For the same compound, the CC50 in “in vitro [1]” came out at 1.8 µM.

In turn, `COc1ccc2nc(-c3cc4ccc(N5CCNCC5)cc4oc3=O)cn2c1` [Compound C35, 3-(6-methoxyimidazo[1,2-a]pyridin-2-yl)-7-(piperazin-1-yl)-2H-chromen-2-one] returned a CC50 in “in vitro [1]” of 3 µM.

Consider `CCOC(=O)C1=C(Nc2ccccc2)S/C(=C\c2ccc(OCCOCCn3cc(COCCOCCOCCOCCN4CCN(c5ccc6cc(-c7cn8cc(C)nc(C)c8n7)c(=O)oc6c5)CC4C)nn3)c(O)c2)C1=O` (stereo in doubt) [Compound C9, (S,Z)-ethyl 5-(4-(2-(2-(4-(13-(4-(3-(6,8-dimethylimidazo[1,2-a]pyrazin-2-yl)-2-oxo-2H-chromen-7-yl)-2-methylpiperazin-1-yl)-2,5,8,11-tetraoxatridecyl)-1H-1,2,3-triazol-1-yl)ethoxy)ethoxy)-3-hydroxybenzylidene)-4-oxo-2-(phenylamino)-4,5-dihydrothiophene-3-carboxylate], for which the EC50 in the data set with SMN2 exon 7 splicing (setting [6]) is > 8 µM.

As to `COc1cn2cc(-c3cc4ccc(N5CCNCC5)cc4oc3=O)nc2cn1` [Compound C28, 3-(6-methoxyimidazo[1,2-a]pyrazin-2-yl)-7-(piperazin-1-yl)-2H-chromen-2-one], the results for the Kd in data set [2], in data set [5] (Table 3) and in data set [5] (Table 4) were 1.4 ± 0.2 µM, 0.47 ± 0.08 µM and 0.47 ± 0.8 µM, respectively. Also, the EC50 with SMN2 exon 7 splicing (setting [6]) and in the data set on SMN2 exon 7 splicing (setting [7]) was > 8 µM each time. Further, the “splicing modulation in cells” value in the data set on SMN2 exon 7 splicing was “without showing any observable splicing modulation”.

On to `Cc1c(-c2ccccc2Cl)c(=O)oc2cc(N3CCN(C)CC3)ccc12` [Compound C21, 3-(2-chlorophenyl)-4-methyl-7-(4-methylpiperazin-1-yl)-2H-chromen-2-one], for which the EC50 with SMN2 exon 7 splicing (setting [6]) is > 8 µM.

The EC50 is the concentration at which the effect is half-maximal. The Kd is the free concentration of one partner at which half of the binding sites on the other are occupied at equilibrium, for simple one-to-one binding.

Values taken from patent publication US20250368651A1 (priority 2022, published 2025).
